l = locked nucleic acid (LNA); d = 2'-deoxy (DNA)
Key:
[1] = Oral capsule toxicokinetic study of CIVI 008 using 5-CNAC as carrier; format: in vivo, Cynomolgus monkey; conditions: for AUC with increasing dose of CIVI 008 / Cmax with increasing dose of CIVI 008: constant dose of 5-CNAC
Excerpt: The objectives of this study were to determine the ability of 5-CNAC [Disodium N-(5-Chorosalicyloyl)-8-aminocaprylate] to facilitate oral uptake of CIVI 008 and to determine the manufacture method and dosing paradigm of CIVI 008/5-CNAC capsules that provide the most efficient oral uptake of CIVI 008 when administered to Cynomolgus monkeys of Mauritian origin.
Study outline: A total of 10 Cynomolgus monkeys (5 males and 5 females) were each dosed with 2 group A capsules on Monday and Wednesday in week 1, followed by 4 days of dosing holiday. This Monday and Wednesday dosing scheme was continued in weeks 2, 3, 5, 6, 7, 8, 13, 14, 15 and 17 using 2 group B-capsules per dose occasion in week 2, and 1 capsule of groups C to K per dose occasion in their respective weeks. During the dosing period, blood samples for PK analysis were drawn pre-dose and 0.5, 1.5, 3 and 5 hours post-dosing on Mondays and Wednesdays. Samples for clinical chemistry and hematology (see example 1) were taken pre-study and end of study.

[2] = test system: plasma LDL; assay: Plasma LDL after once-daily oral CIVI 008/5-CNAC capsule for 49 days; format: in vivo, Cynomolgus monkey; conditions: 5-CNAC vs SNAC
Experimental: The objectives of this study were to determine the ability of 5-CNAC [disodium N-(5-chorosalicyloyl)-8-aminocaprylate] to reduce plasma PCSK9 when dosed once daily for 7 weeks. The half-life of CIVI 008 in the liver of non-human primates is between 2 to 3 weeks, so after 7-weeks of dosing liver concentrations are expected to reach >80% of its steady state level.
Study outline: Dry blended capsules (20 mg CIVI 008/200 mg 5-CNAC) were manufactured from uniform dry blended formulations, that were filled into enterically coated Size 0, hard shell gelatin capsules. A total of 10 Cynomolgus monkeys (5 males and 5 females) were each administered a single capsule by oral gavage once daily for 49 days. […] During the dosing period, blood samples for PK analysis were drawn pre-dose and 0.5, 1.5, 3 and 5 hours post-dosing at study start and at day 49. Blood samples for PCSK9 and lipid analysis were drawn on week −2 and −1 pre-study, pre-dose on Day 1 and weekly thereafter for the duration of the study. Samples for clinical chemistry, coagulation and hematology were taken on week −2 and −1 pre-study, and on Day 22 and 49.

[3] = Oral capsule PK study of CIVI 008 without GalNAc using 5-CNAC as carrier; format: in vivo, Cynomolgus monkey; conditions: single oral capsule 20 mg/200 mg 5-CNAC
Excerpt: As shown in previous Examples 1 and 3, orally dosed CIVI 008 with GalNAc is rapidly internalized in the liver by the GalNAc receptor, with very little CIVI 008 escaping into general circulation at doses below that required for saturation of the GalNAc receptor. In many instances the objective is to target genes that are expressed in organs other than the liver. […] The objective of this study was to determine the systemic exposure of orally administered CIVI 008 without the GalNAc conjugate, and to compare the exposure to that of a similar oral dose of CIVI 008 with GalNAc.
(§1) Study outline: Dry blended capsules (20 mg CIVI 008 without GalNAc/200 mg 5-CNAC) were manufactured from uniform dry blended formulations, that were filled into enterically coated Size 0, hard shell gelatin capsules. A total of 10 Cynomolgus monkeys (5 males and 5 females) were each administered a single capsule by oral gavage, and blood samples for PK analysis were drawn pre-dose and 0.5, 1.5, 3 and 5 hours post-dosing.

[4] = Oral capsule PK study of an oligo against Factor VII, with or without GalNAc, using 5-CNAC as carrier; format: in vivo, Cynomolgus monkey
Experimental: as §1, with “(20 mg Factor FVII with or without GalNac/200” for “(20 mg CIVI 008 without GalNAc/200”, “or without GalNac/200 mg 5-CNAC)” for “008 without GalNAc/200 mg 5-CNAC)”, “single capsule of either oligo by oral” for “single capsule by oral”

[5] = Repeat-dose toxicity of CIVI 008 formulated with SNAC (GLP); format: in vivo, Cynomolgus monkey
[6] = cynomolgus monkey, in vivo, po
Experimental: (§3) The objectives of this study were to evaluate the toxicity and reversibility of CIVI 008 and to determine the pharmacology, plasma exposure and target organ accumulation of CIVI 008 when administered daily by oral capsule to the Cynomolgus monkey of Mauritian origin for 42 days compared to administration by the subcutaneous route administered once every two weeks (investigated previously).
(§4) Oral Capsule: Capsules containing CIVI 008 (10 mg)/SNAC (100 mg) were manufactured as uniform dry blend formulations, that were filled into Size 4 hard shell gelatin capsules that were enterically coated post fill.

[7] = cynomolgus monkey, in vivo
Experimental: as §3, §4

[8] = test system: PCSK9; assay: PCSK9 change from baseline after daily oral CIVI 008/SNAC capsules for 42 days; format: in vivo, Cynomolgus monkey; conditions: control animals, 20 mg CIVI 008 capsules without SNAC, daily x 42
Excerpt: (§2) Clinical chemistry, PCSK9 and lipids: urea nitrogen, creatinine, total protein, albumin, globulin, albumin:globulin ratio, total bilirubin, aspartate aminotransferase, alanine aminotransferase, alkaline phosphatase, gamma glutamyltransferase, creatine kinase, calcium, inorganic phosphorus, sodium, potassium, chloride, high density lipoproteins, low density lipoprotein, very low density lipoprotein, total cholesterol, triglycerides.

[9] = test system: plasma LDL-cholesterol; assay: Plasma LDL cholesterol change from baseline after daily oral CIVI 008/SNAC capsules; format: in vivo, Cynomolgus monkey
Excerpt: as §2

[10] = Half-life of CIVI 008 in the liver; format: in vivo, non-human primates; conditions: expected after 7-weeks of once daily dosing
[11] = CIVI 008 with 5-CNAC capsule, stated as specific aspect
[12] = dose range 5 mg to 30 mg, 200 mg 5-CNAC
[13] = single oral capsule 20 mg/200 mg 5-CNAC

O=C(O)CCCCCCCNC(=O)c1cc(Cl)ccc1O [5-CNAC, N-(5-chlorosalicyloyl)-8-aminocaprylic acid]
efficiency of carrier in facilitating oral uptake of CIVI 008 ([1]; 5-CNAC vs SNAC): more efficient of the two carriers
efficiency in facilitating oral uptake of CIVI 008 [2]: substantially more efficient than SNAC

CIVI 008 without GalNAc: Unconjugated form of CIVI 008, 16 nt LNA gapmer, SEQ ID NO: 134, without GalNAc moiety (AATGCTACAAAACCCA; LNA gapmer stated, pattern not given here)
AUC relative to similar dose of CIVI 008 with GalNac [3]: ~8 fold
Cmax relative to similar dose of CIVI 008 with GalNac [3]: ~8 fold
concentrations in the plasma [3]: measurable concentrations
plasma profile compared to CIVI 008 with GalNAc [3]: very similar

GalNac conjugated Factor FVII oligo: 13 nt LNA gapmer antisense oligo against Factor VII, SEQ ID NO: 158, with GalNAc moiety (antisense GCACCACGGTCCA; sugars from the 5' end l2 d8 l3, all phosphorothioate, methylation of C not given here; GalNAc conjugate attached, further chemistry not fully specified)
species found in plasma samples ([4]; 0.5 hr samples): parent compound
species found in plasma samples ([4]; 1.5 hr samples): mixture of parent compound and loss of carbohydrate moiety
species found in plasma samples ([4]; 3 hr samples): progressive loss of carbohydrate moiety
species found in plasma samples ([4]; 5 hr samples): progressive loss of carbohydrate moiety

cepadacursen (AATGCTACAAAACCCA; LNA gapmer with GalNAc conjugate, pattern not given here) [CIVI 008]
histopathological changes in intestinal tract (duodenum, jejunum, ileum and colon) ([5]; QD oral dosing for 42 days): no local histopathological changes
macroscopic or microscopic findings suggesting local or systemic effects ([5]; end of dosing and end of recovery): no macroscopic or microscopic findings
organ weight changes ([5]; following oral capsule administration): no organ weight changes
form of CIVI 008 detected in plasma (HPLC peak) [6]: mixture of parent compound and metabolites
form of CIVI 008 detected in plasma (HPLC retention time) [6]: absorbed intact from the gut
mean Tmax [6]: ≤ 30 min
AUC0-5 with 5-CNAC carrier compared to similar dose with SNAC carrier ([1]; 5-CNAC vs SNAC (Example 1)): increase
Cmax with 5-CNAC carrier compared to similar dose with SNAC carrier ([1]; 5-CNAC vs SNAC (Example 1)): increase
increase of the mean AUC0-50 with respect to corresponding composition comprising SNAC instead of 5-CNAC [1, 11]: about 80%
increase of the mean Cmax with respect to corresponding composition comprising SNAC instead of 5-CNAC [1, 11]: about 110%
AUC with increasing dose of CIVI 008 ([1]; dose above 25 mg): more than dose proportional increases
Cmax with increasing dose of CIVI 008 ([1]; dose above 25 mg): more than dose proportional increases
AUC with increasing dose of CIVI 008 ([1]; doses up to 25 mg): dose proportionally up to 25 mg
Cmax with increasing dose of CIVI 008 ([1]; doses up to 25 mg): dose proportionally up to 25 mg
AUC profiles, freeze-dried vs dry blended capsules [1, 12]: very similar
Cmax profiles, freeze-dried vs dry blended capsules [1, 12]: very similar
liver concentrations, difference between the SQ and PO arms [7]: approximately one
mean PCSK9 reductions [8]: comparatively small
LDL-c reductions ([9]; control animals, 20 mg CIVI 008 capsules without SNAC, throughout the study): fluctuated around baseline values
LDL levels at the end of recovery ([9]; end of recovery): had yet to fully return to baseline
LDL levels at the end of dosing, persistence ([9]; recovery period after 42 days oral dosing with SNAC): maintained for two weeks post-dosing
liver concentrations as share of steady state level [10]: > 80%

unconjugated Factor FVII oligo: 13 nt LNA gapmer antisense oligo against Factor VII, SEQ ID NO: 158, without GalNAc moiety (antisense GCACCACGGTCCA; sugars from the 5' end l2 d8 l3, all phosphorothioate, methylation of C not given here)
AUC relative to GalNac conjugated Factor FVII oligo [4, 13]: ~3.5 fold
Cmax relative to GalNac conjugated Factor FVII oligo [4, 13]: ~3.5 fold
